According to ChEMBL document CHEMBL4334515, “Lignans from Saururus chinensis with Inhibitory Effects on Nitric Oxide Production” (J Nat Prod, 2019):

Assays:
RAW264.7 [1] = assay: Inhibition of LPS-induced NO production in mouse RAW264.7 cells incubated for 24 hrs in presence of LPS by Griess reagent based assay; type: functional, cell-based; conditions: RAW264.7, 24 h
RAW264.7 [2] = assay: Cytotoxicity against mouse RAW264.7 cells assessed as effect on cell viability at 10 uM by CCK-8 assay; type: cell-based; conditions: raw264.7, 10 µM

Compound | IC50 (RAW264.7 [1]) [µM] | Activity (RAW264.7 [2])
C[C@H](Cc1ccc2c(c1)OCO2)[C@H](C)Cc1cc2c(cc1O)OCO2 (relative stereo) | 41.4 | Non-Toxic
C=CCc1cc(OC)c(OC)c(OC)c1 | > 50 | Non-Toxic
C[C@@H]([C@H](C)[C@H](O)c1ccc2c(c1)OCO2)[C@H](O)c1ccc2c(c1)OCO2 [SAUCERNEOL I] | > 50 | Non-Toxic
C/C=C/c1cc(OC)c(O[C@H](C)[C@H](OC(C)=O)c2cc(OC)c(OC)c(OC)c2)c(OC)c1 | 16.9 | Non-Toxic
CC(C(=O)c1ccc2c(c1)OCO2)[C@H](C)Cc1ccc2c(c1)OCO2 (stereo not given in full) | > 50 | Non-Toxic
COc1cc(C[C@@H](C)[C@@H](C)Cc2ccc(O)c(OC)c2)ccc1O [MESODIHYDROGUAIARETIC ACID] | 20.3 | Non-Toxic
C[C@H]1[C@@H]2c3cc4c(cc3O[C@]35OCOC3=CC(=O)[C@@H](C[C@@H]1C)[C@@H]25)OCO4 | > 50 | Non-Toxic
C[C@H](Cc1cc2c(cc1O)OCO2)[C@H](C)Cc1cc2c(cc1O)OCO2 | 42.4 | Non-Toxic
C=CCc1cc(OC)c(O[C@@H](C)[C@@H](OC(C)=O)c2cc(OC)c3c(c2)OCO3)c(OC)c1 | 23.7 | Non-Toxic
COC/C=C/c1ccc(O[C@@H](C)C(=O)c2cc(OC)c(OC)c(OC)c2)c(OC)c1 | 8.6 | Non-Toxic
C=CCc1cc(OC)c(O[C@H](C)[C@H](O)c2cc(OC)c(OC)c(OC)c2)c(OC)c1 | 46.1 | Non-Toxic
N=C(N)NN [PIMAGEDINE] | 25.5 | 
COC1=CC(=O)C2=C(C1=O)[C@@H](c1cc3c(cc1O)OCO3)[C@H](C)[C@@H](C)C2 |  | Toxic
COc1cc([C@@H]2OC(=O)O[C@H]2C)cc(OC)c1C | 40.1 | Non-Toxic
COC/C=C/c1cc(OC)c(O[C@@H](C)[C@@H](O)c2cc(OC)c3c(c2)OCO3)c(OC)c1 | 35.5 | Non-Toxic
C[C@H]1[C@@H]2c3cc4c(cc3O[C@]35OCOC3=CC(=O)[C@H](C[C@@H]1C)[C@H]25)OCO4 | 5.6 | Non-Toxic
C/C=C/c1ccc(O[C@@H](C)[C@@H](O)c2ccc(O)c(OC)c2)c(OC)c1 [MACHILIN D] | 21.1 | Non-Toxic
C[C@H]1[C@@H]2c3cc4c(cc3O[C@]35OCOC3=CC(=O)[C@@H](C[C@@H]1C)[C@H]25)OCO4 | 9.2 | Non-Toxic
CC(Cc1ccc2c(c1)OCO2)[C@H](C)Cc1ccc2c(c1)OCO2 (stereo not given in full) | 16.5 | Non-Toxic
C=CCc1cc(OC)c(O[C@H](C)[C@H](OC(C)=O)c2cc(OC)c(OC)c(OC)c2)c(OC)c1 | 10.4 | Non-Toxic
C/C=C/c1cc(OC)c(O[C@@H](C)C(=O)c2cc(OC)c(OC)c(OC)c2)c(OC)c1 | 14 | Non-Toxic
